In ChEMBL document CHEMBL3108774, “Azaindoles: noncovalent DprE1 inhibitors from scaffold morphing efforts, kill Mycobacterium tuberculosis and are efficacious in vivo” (J Med Chem, 2013):
In brackets after ≈: the same amount, converted by molar mass.

Experiments:
[1] = Inhibition of Mycobacterium smegmatis thioredoxin 6xHis-tagged decaprenylphosphoryl-beta-D-ribose2'-epimerase1 overexpressed in Escherichia coli rossetta cells using farnesyl-phosphoryl-beta-D-ribofuranose as substrate; set-up: species or system Mycolicibacterium smegmatis
[2] = test system: Mycobacterium tuberculosis; experiment: Antimicrobial activity against Mycobacterium tuberculosis H37Rv ATCC 27294 assessed as growth inhibition after 5 days by microdilution method; type: functional; details: H37Rv ATCC 27294, 120 h
[3] = target: Cytochrome P450 2D6 (Homo sapiens, UniProt P10635); experiment: Inhibition of human CYP2D6; type: ADME
[4] = target: Cytochrome P450 2C19 (Homo sapiens, UniProt P33261); experiment: Inhibition of human CYP2C19; type: ADME
[5] = target: Cytochrome P450 2C9 (Homo sapiens, UniProt P11712); experiment: Inhibition of human CYP2C9; type: ADME
[6] = target: T1, Cytochrome P450 1A2 (Homo sapiens, UniProt P05177); experiment: Inhibition of human CYP1A2; type: ADME
T1 sequence (P05177 whole entry): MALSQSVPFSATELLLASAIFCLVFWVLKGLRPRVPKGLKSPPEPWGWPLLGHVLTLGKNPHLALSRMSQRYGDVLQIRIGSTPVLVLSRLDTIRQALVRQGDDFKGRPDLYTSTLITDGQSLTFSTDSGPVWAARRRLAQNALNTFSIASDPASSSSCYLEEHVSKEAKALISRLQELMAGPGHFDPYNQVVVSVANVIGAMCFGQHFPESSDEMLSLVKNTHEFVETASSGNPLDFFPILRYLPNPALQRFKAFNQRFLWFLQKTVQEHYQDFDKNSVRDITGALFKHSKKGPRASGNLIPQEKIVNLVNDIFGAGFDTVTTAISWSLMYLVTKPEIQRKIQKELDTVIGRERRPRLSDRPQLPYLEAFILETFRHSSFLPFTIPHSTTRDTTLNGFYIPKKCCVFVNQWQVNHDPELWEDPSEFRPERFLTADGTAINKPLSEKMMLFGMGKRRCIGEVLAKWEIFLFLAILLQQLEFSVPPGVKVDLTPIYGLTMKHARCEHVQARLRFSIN

[7] = Unbound fraction in human plasma; type: ADME, cell-free
[8] = Kinetic solubility of the compound in phosphate buffer at pH 7.4 after 24 hrs by LC-MS analysis; type: physicochemical; details: read-out: Kinetic_solubility
[9] = Cytotoxicity against human A549 cells assessed as cell viability after 72 hrs by resazurin staining-based fluorimetric analysis; details: read-out: MIC
[10] = test system: Mycobacterium tuberculosis; experiment: Bactericidal activity against hypoxia induced nonreplicating persistent Mycobacterium tuberculosis H37Rv after 7 days; type: functional; details: 168 h
[11] = test system: Mycobacterium tuberculosis; experiment: Bactericidal activity against Mycobacterium tuberculosis H37Rv ATCC 27294 after 5 days by microdilution method; type: functional; details: H37Rv ATCC 27294, 120 h
[12] = target: Cytochrome P450 3A4 (Homo sapiens, UniProt P08684); experiment: Inhibition of human CYP3A4; type: ADME
[13] = target: Voltage-gated inwardly rectifying potassium channel KCNH2 (Homo sapiens, UniProt Q12809); experiment: Inhibition of human ERG
[14] = Inhibition of Mycobacterium smegmatis thioredoxin 6xHis-tagged decaprenylphosphoryl-beta-D-ribose2'-epimerase1 C394G mutant overexpressed in Escherichia coli rossetta cells using farnesyl-phosphoryl-beta-D-ribofuranose as substrate; set-up: species or system Mycolicibacterium smegmatis
[15] = Inhibition of Mycobacterium smegmatis thioredoxin 6xHis-tagged decaprenylphosphoryl-beta-D-ribose2'-epimerase1 Y321H mutant overexpressed in Escherichia coli rossetta cells using farnesyl-phosphoryl-beta-D-ribofuranose as substrate; set-up: species or system Mycolicibacterium smegmatis
[16] = AUC in BALB/C mouse infected with Mycobacterium tuberculosis H37Rv ATCC 27294 at 50 to 200 mg/kg, po qd administered for 24 days by LC-MS/MS analysis; type: ADME, organism-based; set-up: dose 50-200 mg/kg, route oral; details: plasma
[17] = test system: Mycobacterium tuberculosis; experiment: Antimicrobial activity against Mycobacterium tuberculosis H37Rv ATCC 27294 infected in BALB/C mouse chronic infection model assessed as reduced bacterial burden in lungs at 30 to 100 mg/kg, po administered on day 28 measured after 4 weeks; type: functional, Lung; details: dose mg/kg 30-100
[18] = test system: Mycobacterium tuberculosis; experiment: Bactericidal activity against Mycobacterium tuberculosis H37Rv ATCC 27294 infected in human THP1 cells assessed as reduction in CFU at 1 to 4 times MIC by time-kill method; type: functional, THP-1
[19] = test system: Mycobacterium tuberculosis; experiment: Bactericidal activity against Mycobacterium tuberculosis H37Rv ATCC 27294 infected in human THP1 cells assessed as reduction in CFU at 1 to 4 times MIC at day 10 by time-kill method; type: functional, THP-1
[20] = test system: Mycobacterium tuberculosis; experiment: Bactericidal activity against hypoxia induced nonreplicating persistent Mycobacterium tuberculosis H37Rv assessed as reduction in CFU at 30 times MIC; type: functional
[21] = test system: Mus musculus; experiment: fT>MIC in BALB/C mouse infected with Mycobacterium tuberculosis H37Rv ATCC 27294 at 50 to 200 mg/kg, po qd after 10 to 24 hrs
[22] = test system: Mycobacterium tuberculosis; experiment: Antimicrobial activity against po dosed Mycobacterium tuberculosis H37Rv ATCC 27294 infected BALB/C mouse chronic infection model assessed as reduced bacterial burden in lungs administered on day 28 measured after 4 weeks; type: functional, organism-based; details: Lung
[23] = test system: Mycobacterium tuberculosis; experiment: Antimicrobial activity against po dosed Mycobacterium tuberculosis H37Rv ATCC 27294 infected BALB/C mouse acute infection model assessed as reduced bacterial burden in lungs administered 3 days postinfection measured after 4 weeks; type: functional, organism-based; details: Lung
[24] = test system: Mycobacterium tuberculosis; experiment: Antimicrobial activity against Mycobacterium tuberculosis H37Rv ATCC 27294 infected in BALB/C mouse acute infection model assessed as reduced bacterial burden in lungs at 50 to 100 mg/kg, po administered 3 days postinfection measured after 4 weeks; type: functional, Lung; details: dose mg/kg 50-100

Chain of Cytochrome P450 2C19 (P33261 whole entry): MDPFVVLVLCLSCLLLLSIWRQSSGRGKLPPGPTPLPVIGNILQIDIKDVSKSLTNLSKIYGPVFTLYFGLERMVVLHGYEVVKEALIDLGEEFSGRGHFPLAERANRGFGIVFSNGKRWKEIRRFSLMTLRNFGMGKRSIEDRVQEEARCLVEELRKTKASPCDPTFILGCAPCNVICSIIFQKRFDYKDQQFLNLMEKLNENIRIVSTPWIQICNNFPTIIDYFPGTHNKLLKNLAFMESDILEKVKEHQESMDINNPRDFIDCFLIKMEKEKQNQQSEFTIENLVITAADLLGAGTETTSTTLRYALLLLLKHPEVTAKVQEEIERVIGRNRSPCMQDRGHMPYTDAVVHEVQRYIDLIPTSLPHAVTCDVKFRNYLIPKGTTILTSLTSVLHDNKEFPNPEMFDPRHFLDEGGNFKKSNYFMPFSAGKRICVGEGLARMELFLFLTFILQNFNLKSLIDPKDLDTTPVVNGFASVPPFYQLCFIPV
Chain of Voltage-gated inwardly rectifying potassium channel KCNH2 (Q12809 whole entry): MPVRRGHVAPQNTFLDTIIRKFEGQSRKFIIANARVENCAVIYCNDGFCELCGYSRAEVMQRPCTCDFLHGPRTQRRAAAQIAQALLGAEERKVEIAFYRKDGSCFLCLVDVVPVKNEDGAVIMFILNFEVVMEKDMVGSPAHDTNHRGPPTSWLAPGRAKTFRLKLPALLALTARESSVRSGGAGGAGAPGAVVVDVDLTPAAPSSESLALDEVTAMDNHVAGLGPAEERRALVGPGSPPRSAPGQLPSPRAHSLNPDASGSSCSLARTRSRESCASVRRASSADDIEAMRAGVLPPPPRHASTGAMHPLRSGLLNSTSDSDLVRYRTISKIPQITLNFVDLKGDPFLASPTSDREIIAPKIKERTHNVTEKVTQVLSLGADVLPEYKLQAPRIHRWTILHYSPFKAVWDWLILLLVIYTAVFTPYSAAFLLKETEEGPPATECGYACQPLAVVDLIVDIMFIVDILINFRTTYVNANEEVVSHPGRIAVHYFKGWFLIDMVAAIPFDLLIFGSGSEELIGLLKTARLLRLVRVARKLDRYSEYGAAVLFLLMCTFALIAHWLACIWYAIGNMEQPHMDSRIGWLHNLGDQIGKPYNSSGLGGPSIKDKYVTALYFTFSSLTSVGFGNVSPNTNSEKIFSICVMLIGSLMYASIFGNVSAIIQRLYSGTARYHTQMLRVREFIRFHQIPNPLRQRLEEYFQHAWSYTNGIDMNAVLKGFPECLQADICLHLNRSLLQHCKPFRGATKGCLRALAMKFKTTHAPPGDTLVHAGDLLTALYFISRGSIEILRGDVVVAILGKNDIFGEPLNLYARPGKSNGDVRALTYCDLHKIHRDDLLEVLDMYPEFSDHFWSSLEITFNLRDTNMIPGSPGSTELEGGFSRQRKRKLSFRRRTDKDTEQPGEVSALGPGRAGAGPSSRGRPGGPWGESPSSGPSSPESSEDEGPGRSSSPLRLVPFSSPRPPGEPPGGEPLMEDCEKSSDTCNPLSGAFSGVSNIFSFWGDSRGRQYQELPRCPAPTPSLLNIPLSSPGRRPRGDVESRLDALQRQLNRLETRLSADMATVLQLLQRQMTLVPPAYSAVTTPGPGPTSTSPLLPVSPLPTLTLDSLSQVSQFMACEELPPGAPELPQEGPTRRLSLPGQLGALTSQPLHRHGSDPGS
Chain of Cytochrome P450 2C9 (P11712 whole entry): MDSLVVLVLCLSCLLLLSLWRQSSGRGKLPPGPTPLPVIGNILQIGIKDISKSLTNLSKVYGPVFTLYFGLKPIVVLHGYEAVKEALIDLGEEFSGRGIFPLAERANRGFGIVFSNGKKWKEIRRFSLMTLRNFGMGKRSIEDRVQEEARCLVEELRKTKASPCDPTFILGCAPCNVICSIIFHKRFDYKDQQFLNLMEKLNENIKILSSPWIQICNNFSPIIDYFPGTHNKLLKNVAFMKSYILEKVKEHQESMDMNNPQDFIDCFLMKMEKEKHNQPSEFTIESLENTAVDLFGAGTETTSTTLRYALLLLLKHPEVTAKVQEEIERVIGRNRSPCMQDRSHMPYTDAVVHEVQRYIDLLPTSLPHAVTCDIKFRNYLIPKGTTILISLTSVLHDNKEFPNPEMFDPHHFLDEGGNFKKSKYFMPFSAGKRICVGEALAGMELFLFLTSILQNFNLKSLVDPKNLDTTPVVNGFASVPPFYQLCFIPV
Chain of Cytochrome P450 3A4 (P08684 whole entry): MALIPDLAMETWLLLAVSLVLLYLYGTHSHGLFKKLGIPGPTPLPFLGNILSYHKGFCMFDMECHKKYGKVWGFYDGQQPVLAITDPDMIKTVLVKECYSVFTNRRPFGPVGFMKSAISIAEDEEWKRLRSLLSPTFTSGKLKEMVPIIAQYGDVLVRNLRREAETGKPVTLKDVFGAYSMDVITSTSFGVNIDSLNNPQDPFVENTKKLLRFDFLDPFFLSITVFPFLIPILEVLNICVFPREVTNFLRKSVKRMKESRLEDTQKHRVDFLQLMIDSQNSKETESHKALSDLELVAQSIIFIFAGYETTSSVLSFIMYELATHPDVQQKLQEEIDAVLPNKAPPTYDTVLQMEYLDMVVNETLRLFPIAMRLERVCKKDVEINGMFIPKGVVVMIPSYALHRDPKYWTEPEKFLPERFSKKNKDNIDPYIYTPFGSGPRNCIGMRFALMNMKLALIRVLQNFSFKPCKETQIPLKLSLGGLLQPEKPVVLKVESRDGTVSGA
Chain of Cytochrome P450 2D6 (P10635 whole entry): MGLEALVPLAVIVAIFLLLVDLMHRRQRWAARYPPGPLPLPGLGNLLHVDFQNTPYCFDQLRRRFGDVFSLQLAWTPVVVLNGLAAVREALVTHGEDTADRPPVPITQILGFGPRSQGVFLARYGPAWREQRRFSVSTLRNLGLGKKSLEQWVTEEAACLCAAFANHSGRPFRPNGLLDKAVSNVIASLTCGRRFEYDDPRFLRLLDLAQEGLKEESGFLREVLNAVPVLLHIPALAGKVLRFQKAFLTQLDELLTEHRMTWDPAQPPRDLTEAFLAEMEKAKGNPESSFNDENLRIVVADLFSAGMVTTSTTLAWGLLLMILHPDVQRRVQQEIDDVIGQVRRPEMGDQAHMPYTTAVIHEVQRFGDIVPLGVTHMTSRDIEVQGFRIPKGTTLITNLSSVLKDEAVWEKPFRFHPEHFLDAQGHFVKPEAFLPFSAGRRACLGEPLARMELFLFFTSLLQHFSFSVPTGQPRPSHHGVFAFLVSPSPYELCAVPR

Structure (SMILES): COc1ccc(Cn2cc(C(=O)NCC3CC3)c3cnccc32)cc1
- IC50 [1]: 1000 nM
- MIC [2]: > 200 µM

Structure (SMILES): COc1ncnc(Cn2cc(C(=O)NCCF)c3ncc(C)cc32)c1C
- INH [3]: > 50 µM
- INH [4]: > 50 µM
- INH [5]: > 50 µM
- INH [6]: > 50 µM
- fraction unbound [7]: 0.05
- solubility kinetic at 24 h [8]: 4 µM (≈ 1.43 µg/mL)
- MCC at 72 h [9]: > 100 µM
- IC50 [1]: 3 nM
- MBC [10]: 100 µM (≈ 35.7 µg/mL)
- MBC [11]: < 0.39 µM
- MIC [2]: < 0.39 µM
- INH [12]: > 50 µM
- INH [13]: > 33 µM
- IC50 [14]: 7 nM
- IC50 [15]: > 10000 nM

Structure (SMILES): Cc1ccccc1Cn1cc(C(=O)NCC2CC2)c2ncccc21
- MCC at 72 h [9]: 94 µM
- INH [13]: 28 µM

Structure (SMILES): Cc1ccc(Cn2cc(C(=O)NCCc3ccncc3)c3ncccc32)c(C)c1
- IC50 [1]: 5500 nM
- MIC [2]: > 200 µM

Structure (SMILES): O=C(NCC1CC1)c1cn(CC2CCOCC2)c2cccnc12
- IC50 [1]: 2500 nM
- MIC [2]: > 100 µM

Structure (SMILES): Cc1ccc(Cn2cc(C(=O)NCC3CCC(F)(F)CC3)c3ncccc32)c(C)c1
- IC50 [1]: 7900 nM
- MIC [2]: > 200 µM

Structure (SMILES): COc1ncnc(Cn2cc(C(=O)NCCO)c3ncccc32)c1C
- IC50 [1]: 90 nM
- MIC [2]: 14 µM (≈ 4.78 µg/mL)

Structure (SMILES): COc1ncnc(Cn2cc(C(=O)NCC3CC3)c3ncccc32)c1C
- AUC at 576 h [16]: 200 µM·h
- INH [3]: > 50 µM
- INH [4]: > 50 µM
- INH [5]: > 50 µM
- INH [6]: > 50 µM
- MCC at 72 h [9]: > 100 µM
- INH [12]: > 50 µM
- INH [13]: > 33 µM

Structure (SMILES): Cc1ccc(Cn2cc(C(=O)NCCF)c3ncccc32)c(C)c1
- IC50 [1]: 10 nM
- MIC [2]: 1.56 µM (≈ 0.508 µg/mL)

Structure (SMILES): COc1ccc(Cn2cc(C(=O)N(C)CC3CC3)c3ncccc32)cc1
- IC50 [1]: > 10000 nM
- MIC [2]: > 200 µM

Structure (SMILES): Cc1cnc2c(C(=O)NCCF)cn(Cc3ncnc(N(C)C)c3C)c2c1
- IC50 [1]: 37 nM
- MIC [2]: 0.78 µM (≈ 0.289 µg/mL)

Structure (SMILES): Cc1cccnc1Cn1cc(C(=O)NCC2CC2)c2ncccc21
- IC50 [1]: 83 nM
- MIC [2]: 27 µM (≈ 8.65 µg/mL)

Structure (SMILES): Cc1ccc(Cn2cc(C(=O)NCC3CC3)c3ncccc32)cc1
- IC50 [1]: 21 nM
- MIC [2]: 13.2 µM (≈ 4.22 µg/mL)

Structure (SMILES): COc1ncnc(Cn2cc(C(=O)NC[C@H](C)F)c3ncc(C)cc32)c1C
- IC50 [1]: 14 nM
- MIC [2]: 0.156 µM (≈ 0.0579 µg/mL)

Structure (SMILES): COc1cccc(F)c1Cn1cc(C(=O)NCC2CC2)c2ncccc21
- IC50 [1]: 6 nM
- MIC [2]: 1.56 µM (≈ 0.551 µg/mL)

Structure (SMILES): COc1ccc(Cn2cc(C(=O)NCC3CC3)c3ncccc32)cc1
- IC50 [1]: 7 nM
- MIC [2]: 6.25 µM (≈ 2.1 µg/mL)

Structure (SMILES): Cc1c(Cn2cc(C(=O)NCCF)c3ncccc32)ncnc1N(C)C
- IC50 [1]: 20 nM
- MIC [2]: 6.25 µM (≈ 2.23 µg/mL)

Structure (SMILES): Cc1ccccc1Cn1cc(C(=O)NCCN2CCCCC2)c2ncccc21
- IC50 [1]: > 10000 nM
- MIC [2]: > 200 µM

Structure (SMILES): COc1ncnc(Cn2cc(C(=O)NC[C@@H](C)F)c3ncccc32)c1C
- MIC [2]: 0.78 µM (≈ 0.279 µg/mL)

Structure (SMILES): COc1ncnc(Cn2cc(C(=O)NCCF)c3ncccc32)c1C
- log10cfu [17]: >1.5
- log10cfu [18]: 1
- log10cfu [19]: 4
- log10cfu [20]: 1.5
- %T>MIC [21]: 25%
- AUC at 576 h [16]: 200 µM·h
- Activity [22]: Dose-dependent effect
- Activity [23]: Dose-dependent effect
- INH [3]: > 50 µM
- INH [4]: > 50 µM
- INH [5]: > 50 µM
- INH [6]: > 50 µM
- fraction unbound [7]: 0.098
- solubility kinetic at 24 h [8]: 8 µM (≈ 2.75 µg/mL)
- MCC at 72 h [9]: > 100 µM
- IC50 [1]: 10 nM
- MBC [10]: 50 µM (≈ 17.2 µg/mL)
- MBC [11]: 1.56 µM (≈ 0.536 µg/mL)
- MIC [2]: 1.56 µM (≈ 0.536 µg/mL)
- INH [12]: > 50 µM
- INH [13]: > 33 µM
- log10cfu [24]: >1.5
- IC50 [14]: 15 nM
- IC50 [15]: > 10000 nM

Structure (SMILES): CCc1nc2cc(Cl)ccn2c1C(=O)NCc1ccc(N2CCN(c3ccc(F)cc3)CC2)cc1
- IC50 [1]: > 10000 nM
- MBC [10]: > 100 µM
- MBC [11]: > 200 µM
- MIC [2]: 0.017 µM (≈ 0.00836 µg/mL)

Structure (SMILES): COCCNC(=O)c1cn(Cc2cc(F)cnc2OC)c2cccnc12
- IC50 [1]: 4 nM
- MIC [2]: 0.78 µM (≈ 0.28 µg/mL)

Structure (SMILES): COc1ncnc(Cn2cc(C(=O)NCCO)c3ncc(C)cc32)c1C [TBA-7371]
- INH [3]: > 50 µM
- INH [4]: > 50 µM
- INH [5]: > 50 µM
- INH [6]: > 50 µM
- MCC at 72 h [9]: > 100 µM
- IC50 [1]: 10 nM
- MBC [10]: > 100 µM
- MBC [11]: 0.78 µM (≈ 0.277 µg/mL)
- MIC [2]: 1.56 µM (≈ 0.554 µg/mL)
- INH [12]: > 50 µM
- INH [13]: > 33 µM
- IC50 [14]: 10 nM
- IC50 [15]: > 10000 nM
